Data taken from ChEMBL document CHEMBL4507281, “Data for DCP probe BI-4394” (2021).

What was measured:
[1] = biological target: Serine/threonine-protein kinase tousled-like 1 (Homo sapiens) (UniProt Q9UKI8); details: Compound concentration 100.0 nM
[2] = biological target: Activin receptor type-1 (Homo sapiens) (UniProt Q04771); details: Compound concentration 100.0 nM
[3] = biological target: 5-hydroxytryptamine receptor 5A (Homo sapiens) (UniProt P47898); details: Compound concentration 10.0 uM
[4] = biological target: Serine/threonine-protein kinase BRSK1 (Homo sapiens) (UniProt Q8TDC3); details: Compound concentration 100.0 nM
[5] = test system: Tyrosine-protein kinase ABL1 (Homo sapiens), P00519 [F317I]; details: Compound concentration 100.0 nM
[6] = biological target: Cyclin-dependent kinase 14 (Homo sapiens) (UniProt O94921); details: Compound concentration 100.0 nM
Cyclin-dependent kinase 14 (Homo sapiens), sequence (O94921 whole entry): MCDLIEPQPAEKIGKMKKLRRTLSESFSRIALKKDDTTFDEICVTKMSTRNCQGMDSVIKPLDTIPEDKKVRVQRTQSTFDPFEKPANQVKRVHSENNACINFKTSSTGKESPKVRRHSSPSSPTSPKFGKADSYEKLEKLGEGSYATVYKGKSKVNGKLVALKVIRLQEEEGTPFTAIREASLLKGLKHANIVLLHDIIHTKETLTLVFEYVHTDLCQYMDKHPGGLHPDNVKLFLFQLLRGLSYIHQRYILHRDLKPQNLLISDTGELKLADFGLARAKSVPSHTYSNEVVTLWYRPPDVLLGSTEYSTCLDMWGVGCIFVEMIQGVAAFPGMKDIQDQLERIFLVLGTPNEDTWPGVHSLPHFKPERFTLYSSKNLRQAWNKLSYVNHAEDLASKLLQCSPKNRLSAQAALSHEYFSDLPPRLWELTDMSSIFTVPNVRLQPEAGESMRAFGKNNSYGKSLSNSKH

[7] = biological target: Casein kinase II subunit alpha (Homo sapiens) (UniProt P68400); details: Compound concentration 10.0 uM
[8] = test system: Tyrosine-protein kinase ABL1 (Homo sapiens), P00519 [F317L]; details: Compound concentration 100.0 nM
Tyrosine-protein kinase ABL1 (Homo sapiens), P00519 [F317L], sequence (P00519 whole entry F317L): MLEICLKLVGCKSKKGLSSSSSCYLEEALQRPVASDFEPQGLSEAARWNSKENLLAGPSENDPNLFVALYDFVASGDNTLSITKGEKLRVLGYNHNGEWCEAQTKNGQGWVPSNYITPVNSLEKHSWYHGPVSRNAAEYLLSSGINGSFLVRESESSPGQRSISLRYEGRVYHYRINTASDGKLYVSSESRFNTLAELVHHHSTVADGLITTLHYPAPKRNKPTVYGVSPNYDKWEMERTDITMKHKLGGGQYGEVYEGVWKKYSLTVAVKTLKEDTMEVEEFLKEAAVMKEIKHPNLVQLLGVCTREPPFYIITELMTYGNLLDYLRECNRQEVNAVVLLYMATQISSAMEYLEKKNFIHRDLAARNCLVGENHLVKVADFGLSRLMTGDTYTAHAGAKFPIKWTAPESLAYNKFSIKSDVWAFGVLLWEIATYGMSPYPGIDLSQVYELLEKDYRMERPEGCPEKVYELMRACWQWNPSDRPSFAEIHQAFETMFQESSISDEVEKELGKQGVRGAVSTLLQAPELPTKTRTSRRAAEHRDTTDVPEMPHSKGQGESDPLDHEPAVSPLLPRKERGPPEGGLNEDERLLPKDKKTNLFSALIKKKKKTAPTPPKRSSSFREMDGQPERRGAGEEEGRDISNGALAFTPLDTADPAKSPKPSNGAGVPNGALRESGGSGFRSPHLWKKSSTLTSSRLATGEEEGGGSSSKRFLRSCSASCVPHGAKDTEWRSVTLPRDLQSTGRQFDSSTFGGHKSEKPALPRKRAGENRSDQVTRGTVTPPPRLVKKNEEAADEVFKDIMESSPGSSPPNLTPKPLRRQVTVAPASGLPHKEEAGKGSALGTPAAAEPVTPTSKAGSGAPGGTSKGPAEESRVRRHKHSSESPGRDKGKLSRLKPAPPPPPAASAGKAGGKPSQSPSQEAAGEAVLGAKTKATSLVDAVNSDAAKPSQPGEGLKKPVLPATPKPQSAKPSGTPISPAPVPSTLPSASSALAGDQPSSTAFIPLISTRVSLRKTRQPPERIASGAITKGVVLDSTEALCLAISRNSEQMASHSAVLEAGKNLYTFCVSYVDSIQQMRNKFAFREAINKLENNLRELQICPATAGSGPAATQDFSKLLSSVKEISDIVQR

[9] = biological target: Cyclin-dependent kinase 13 (Homo sapiens) (UniProt Q14004); details: Compound concentration 100.0 nM
[10] = biological target: Serine/threonine-protein kinase pim-2 (Homo sapiens) (UniProt Q9P1W9); details: Compound concentration 100.0 nM
Serine/threonine-protein kinase pim-2 (Homo sapiens), sequence (Q9P1W9 whole entry, looked up): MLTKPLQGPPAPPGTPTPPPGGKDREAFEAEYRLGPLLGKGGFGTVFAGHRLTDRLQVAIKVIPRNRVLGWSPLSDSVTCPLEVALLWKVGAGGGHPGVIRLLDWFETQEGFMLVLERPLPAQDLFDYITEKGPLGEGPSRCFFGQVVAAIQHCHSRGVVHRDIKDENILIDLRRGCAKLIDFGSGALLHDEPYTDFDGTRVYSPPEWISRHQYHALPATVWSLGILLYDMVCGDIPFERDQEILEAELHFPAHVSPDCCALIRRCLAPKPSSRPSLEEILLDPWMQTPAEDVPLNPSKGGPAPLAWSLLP

[11] = biological target: Serine/threonine-protein kinase 35 (Homo sapiens) (UniProt Q8TDR2); details: Compound concentration 100.0 nM
[12] = biological target: Cyclin-G-associated kinase (Homo sapiens) (UniProt O14976); details: Compound concentration 100.0 nM
[13] = biological target: High affinity nerve growth factor receptor (Homo sapiens) (UniProt P04629); details: Compound concentration 10.0 uM
[14] = biological target: Dual specificity mitogen-activated protein kinase kinase 4 (Homo sapiens) (UniProt P45985); details: Compound concentration 100.0 nM
[15] = biological target: Mitogen-activated protein kinase 8 (Homo sapiens) (UniProt P45983); details: Compound concentration 10.0 uM
[16] = test system: Epidermal growth factor receptor (Homo sapiens), P00533 [L858R]; details: Compound concentration 100.0 nM
[17] = biological target: Serine/threonine-protein kinase OSR1 (Homo sapiens) (UniProt O95747); details: Compound concentration 100.0 nM
[18] = biological target: Tyrosine-protein kinase Lck (Homo sapiens) (UniProt P06239); details: Compound concentration 10.0 uM
[19] = biological target: Serine/threonine-protein kinase NLK (Homo sapiens) (UniProt Q9UBE8); details: Compound concentration 100.0 nM
[20] = biological target: Serine/threonine-protein kinase Sgk3 (Homo sapiens) (UniProt Q96BR1); details: Compound concentration 100.0 nM
[21] = biological target: Serine/threonine-protein kinase 4 (Homo sapiens) (UniProt Q13043); details: Compound concentration 100.0 nM
[22] = biological target: Homeodomain-interacting protein kinase 4 (Homo sapiens) (UniProt Q8NE63); details: Compound concentration 100.0 nM
Homeodomain-interacting protein kinase 4 (Homo sapiens), sequence (Q8NE63 whole entry): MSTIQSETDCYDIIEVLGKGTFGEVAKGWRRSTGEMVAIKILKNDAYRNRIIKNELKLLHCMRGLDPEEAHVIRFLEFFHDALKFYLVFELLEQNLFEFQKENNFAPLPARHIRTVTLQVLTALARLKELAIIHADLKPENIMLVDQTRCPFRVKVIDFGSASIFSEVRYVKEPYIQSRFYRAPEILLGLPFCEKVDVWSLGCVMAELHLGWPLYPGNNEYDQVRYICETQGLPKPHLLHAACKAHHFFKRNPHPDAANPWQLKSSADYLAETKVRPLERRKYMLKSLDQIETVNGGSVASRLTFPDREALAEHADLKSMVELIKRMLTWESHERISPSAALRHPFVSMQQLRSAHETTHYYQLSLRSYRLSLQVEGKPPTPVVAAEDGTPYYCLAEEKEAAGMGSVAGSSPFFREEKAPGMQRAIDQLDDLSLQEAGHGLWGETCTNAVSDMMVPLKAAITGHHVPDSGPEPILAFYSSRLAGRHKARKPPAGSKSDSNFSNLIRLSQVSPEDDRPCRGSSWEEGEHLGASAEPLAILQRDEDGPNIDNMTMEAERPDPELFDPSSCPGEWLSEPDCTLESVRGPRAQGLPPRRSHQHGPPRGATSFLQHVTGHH

[23] = biological target: SRSF protein kinase 3 (Homo sapiens) (UniProt Q9UPE1); details: Compound concentration 100.0 nM
SRSF protein kinase 3 (Homo sapiens), sequence (Q9UPE1 whole entry): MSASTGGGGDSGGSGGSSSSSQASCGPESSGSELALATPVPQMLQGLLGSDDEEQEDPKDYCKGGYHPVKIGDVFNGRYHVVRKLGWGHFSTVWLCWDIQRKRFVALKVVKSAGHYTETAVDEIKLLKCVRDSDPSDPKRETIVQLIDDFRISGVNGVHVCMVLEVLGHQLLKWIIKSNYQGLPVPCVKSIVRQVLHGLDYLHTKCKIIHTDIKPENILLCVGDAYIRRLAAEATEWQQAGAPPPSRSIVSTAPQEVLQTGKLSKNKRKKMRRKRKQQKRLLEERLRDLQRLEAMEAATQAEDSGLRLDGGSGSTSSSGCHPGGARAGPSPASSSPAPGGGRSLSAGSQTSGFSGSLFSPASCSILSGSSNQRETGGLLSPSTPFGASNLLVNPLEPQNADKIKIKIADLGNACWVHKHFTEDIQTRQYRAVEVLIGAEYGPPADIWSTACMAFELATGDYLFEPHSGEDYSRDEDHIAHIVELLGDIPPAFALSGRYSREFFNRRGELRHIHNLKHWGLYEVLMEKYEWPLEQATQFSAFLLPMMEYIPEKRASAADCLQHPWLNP

[24] = biological target: Mitogen-activated protein kinase kinase kinase 9 (Homo sapiens) (UniProt P80192); details: Compound concentration 10.0 uM
[25] = biological target: Casein kinase II subunit alpha' (Homo sapiens) (UniProt P19784); details: Compound concentration 100.0 nM
Casein kinase II subunit alpha' (Homo sapiens), sequence (P19784 whole entry, looked up): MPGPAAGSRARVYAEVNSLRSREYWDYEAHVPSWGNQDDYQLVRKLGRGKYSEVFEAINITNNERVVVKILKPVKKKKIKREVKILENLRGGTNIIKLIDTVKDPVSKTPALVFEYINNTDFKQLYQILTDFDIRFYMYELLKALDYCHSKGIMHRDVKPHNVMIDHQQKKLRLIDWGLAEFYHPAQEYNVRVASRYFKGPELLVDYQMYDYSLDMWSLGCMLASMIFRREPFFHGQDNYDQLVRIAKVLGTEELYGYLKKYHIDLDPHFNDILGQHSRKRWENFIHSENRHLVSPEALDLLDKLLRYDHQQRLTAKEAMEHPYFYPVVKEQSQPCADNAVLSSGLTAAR

[26] = biological target: Protein-tyrosine kinase 6 (Homo sapiens) (UniProt Q13882); details: Compound concentration 100.0 nM
Protein-tyrosine kinase 6 (Homo sapiens), sequence (Q13882 whole entry, looked up): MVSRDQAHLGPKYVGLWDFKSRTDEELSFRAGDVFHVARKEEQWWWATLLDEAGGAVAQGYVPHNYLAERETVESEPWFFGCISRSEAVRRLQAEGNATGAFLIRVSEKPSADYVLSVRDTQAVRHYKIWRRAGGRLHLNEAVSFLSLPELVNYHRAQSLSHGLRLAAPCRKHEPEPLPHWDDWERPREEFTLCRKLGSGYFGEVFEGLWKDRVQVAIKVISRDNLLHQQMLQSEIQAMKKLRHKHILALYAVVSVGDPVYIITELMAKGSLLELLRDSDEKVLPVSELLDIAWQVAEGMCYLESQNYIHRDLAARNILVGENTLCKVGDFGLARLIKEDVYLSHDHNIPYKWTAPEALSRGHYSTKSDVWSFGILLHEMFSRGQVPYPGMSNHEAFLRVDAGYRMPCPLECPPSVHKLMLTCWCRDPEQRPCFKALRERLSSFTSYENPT

[27] = biological target: Cyclin-dependent kinase 17 (Homo sapiens) (UniProt Q00537); details: Compound concentration 100.0 nM
Cyclin-dependent kinase 17 (Homo sapiens), sequence (Q00537 whole entry, looked up): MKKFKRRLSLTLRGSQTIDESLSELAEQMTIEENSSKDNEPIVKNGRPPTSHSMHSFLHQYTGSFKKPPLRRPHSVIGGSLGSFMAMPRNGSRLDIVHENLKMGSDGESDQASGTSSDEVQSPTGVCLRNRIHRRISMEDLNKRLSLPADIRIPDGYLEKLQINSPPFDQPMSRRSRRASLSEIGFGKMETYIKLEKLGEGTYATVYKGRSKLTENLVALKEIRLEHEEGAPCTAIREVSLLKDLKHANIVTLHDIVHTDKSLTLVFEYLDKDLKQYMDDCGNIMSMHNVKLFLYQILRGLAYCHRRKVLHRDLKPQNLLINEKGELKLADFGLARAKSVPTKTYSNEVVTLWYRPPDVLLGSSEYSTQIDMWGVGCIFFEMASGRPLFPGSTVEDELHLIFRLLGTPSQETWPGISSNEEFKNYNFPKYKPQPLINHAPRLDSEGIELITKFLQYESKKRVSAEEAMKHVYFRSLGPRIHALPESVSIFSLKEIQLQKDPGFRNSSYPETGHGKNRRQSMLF

[28] = biological target: Tyrosine-protein kinase ABL1 (Homo sapiens) (UniProt P00519); details: Compound concentration 10.0 uM
[29] = biological target: Alpha-2A adrenergic receptor (Homo sapiens) (UniProt P08913); details: Compound concentration 10.0 uM
[30] = biological target: Alpha-2C adrenergic receptor (Homo sapiens) (UniProt P18825); details: Compound concentration 10.0 uM
[31] = biological target: Protein kinase C beta type (Homo sapiens) (UniProt P05771); details: Compound concentration 10.0 uM
[32] = biological target: Serine/threonine-protein kinase VRK2 (Homo sapiens) (UniProt Q86Y07); details: Compound concentration 100.0 nM
[33] = biological target: Dual serine/threonine and tyrosine protein kinase (Homo sapiens) (UniProt Q6XUX3); details: Compound concentration 100.0 nM
[34] = biological target: MAP kinase-interacting serine/threonine-protein kinase 2 (Homo sapiens) (UniProt Q9HBH9); details: Compound concentration 100.0 nM
[35] = biological target: Fibroblast growth factor receptor 1 (Homo sapiens) (UniProt P11362); details: Compound concentration 10.0 uM
[36] = biological target: Mitogen-activated protein kinase 15 (Homo sapiens) (UniProt Q8TD08); details: Compound concentration 100.0 nM
Mitogen-activated protein kinase 15 (Homo sapiens), sequence (Q8TD08 whole entry): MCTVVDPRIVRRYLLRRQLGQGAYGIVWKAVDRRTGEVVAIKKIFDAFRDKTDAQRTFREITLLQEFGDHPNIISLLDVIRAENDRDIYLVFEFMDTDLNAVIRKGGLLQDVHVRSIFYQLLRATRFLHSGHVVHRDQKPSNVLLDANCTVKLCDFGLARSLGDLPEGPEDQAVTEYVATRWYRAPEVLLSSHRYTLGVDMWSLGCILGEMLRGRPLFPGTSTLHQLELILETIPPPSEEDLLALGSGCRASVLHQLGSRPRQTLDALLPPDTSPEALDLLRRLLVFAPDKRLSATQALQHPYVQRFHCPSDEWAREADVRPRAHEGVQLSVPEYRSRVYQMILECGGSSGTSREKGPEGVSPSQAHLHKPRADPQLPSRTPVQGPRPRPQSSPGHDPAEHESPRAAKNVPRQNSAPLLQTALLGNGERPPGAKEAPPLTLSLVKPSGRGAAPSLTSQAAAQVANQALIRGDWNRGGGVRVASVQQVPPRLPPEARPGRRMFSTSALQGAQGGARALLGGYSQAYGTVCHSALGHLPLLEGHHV

[37] = test system: Receptor-type tyrosine-protein kinase FLT3 (Homo sapiens), P36888 [UNDEFINED MUTATION]; details: Compound concentration 100.0 nM
[38] = biological target: Glycogen synthase kinase-3 beta (Homo sapiens) (UniProt P49841); details: Compound concentration 100.0 nM
[39] = biological target: Serine/threonine-protein kinase Sgk2 (Homo sapiens) (UniProt Q9HBY8); details: Compound concentration 100.0 nM
[40] = biological target: Wee1-like protein kinase (Homo sapiens) (UniProt P30291); details: Compound concentration 100.0 nM
[41] = biological target: Serine/threonine-protein kinase mTOR (Homo sapiens) (UniProt P42345); details: Compound concentration 10.0 uM
[42] = biological target: Tyrosine-protein kinase Mer (Homo sapiens) (UniProt Q12866); details: Compound concentration 100.0 nM

Work on `CCOC(=O)c1cc2cc(-c3cc(C(=O)NCc4ccc(C(=O)O)cc4)nn3C)ccc2[nH]1` [BI 4394] yielded a residual activity [1] of 83%, a residual activity [2] of 84% and an inhibition [3] of 14.8%. The residual activity [4] was 100%, the residual activity [5] was 80% and the residual activity [6] was 100%. The residual activity [7] was 89%, the residual activity [8] was 100% and the residual activity [9] was 83%. The residual activity [10] was 96%, the residual activity [11] was 94% and the residual activity [12] was 85%. It also gave a residual activity [13] of 190%, a residual activity [14] of 93% and a residual activity [15] of 87%. For the same molecule, the residual activity [16] was 91%, the residual activity [17] was 100% and the residual activity [18] was 68%. The residual activity [19] was 86%, the residual activity [20] was 82% and the residual activity [21] was 100%. For the same molecule, the residual activity [22] was 87%, the residual activity [23] was 100% and the residual activity [24] was 93%. For the same molecule, the residual activity [25] was 87%, the residual activity [26] was 98% and the residual activity [27] was 100%. For the same molecule, the residual activity [28] was 48%, the inhibition [29] was 12.3% and the inhibition [30] was -7.04%. For the same molecule, the residual activity [31] was 97%, the residual activity [32] was 98% and the residual activity [33] was 69%. It also gave a residual activity [34] of 92%, a residual activity [35] of 94% and a residual activity [36] of 100%. The residual activity [37] was 72%, the residual activity [38] was 95% and the residual activity [39] was 100%. For the same molecule, the residual activity [40] was 90%, the residual activity [41] was 78% and the residual activity [42] was 100%.

With `Cn1nc(C(=O)NCc2ccc(C(=O)O)cc2)cc1-c1ccc2[nH]ccc2c1` [BI 4395] the residual activity [1] was 100%, the residual activity [2] was 99% and the inhibition [3] was 0.78%. For the same molecule, the residual activity [4] was 86%, the residual activity [5] was 68% and the residual activity [6] was 100%. For the same molecule, the residual activity [8] was 62%, the residual activity [9] was 72% and the residual activity [10] was 81%. The residual activity [11] was 94%, the residual activity [12] was 90% and the residual activity [14] was 79%. For the same molecule, the residual activity [16] was 100%, the residual activity [17] was 88% and the residual activity [19] was 100%. The residual activity [20] was 96%, the residual activity [21] was 80% and the residual activity [22] was 100%. It also gave a residual activity [23] of 100%, a residual activity [25] of 100% and a residual activity [26] of 89%. For the same molecule, the residual activity [27] was 77%, the inhibition [30] was -7.92% and the residual activity [32] was 91%. It also gave a residual activity [33] of 96%, a residual activity [34] of 96% and a residual activity [36] of 98%. The residual activity [37] was 66%, the residual activity [38] was 78% and the residual activity [39] was 54%. It also gave a residual activity [40] of 100% and a residual activity [42] of 40%.
